Entries after “also recorded” stand apart in the source; their conditions may differ.
Assay: Estimation of fine dust attachment on PMMA plate coated with artificial sebum
Conditions: compared to control group or other compounds
Description: 1) Method for Estimating Fine Dust Attachment
i) After applying artificial sebum of 1.3 mg/cm^2 on a PMMA plate, it was dried for 15 minutes.
ii) After applying a test formulation on the dried artificial sebum in the same amount, it was dried for 15 minutes (Noting was applied on the control group).
iii) The PMMA plate was attached on the internal top of the self-made chamber, and a pan on the bottom of the chamber was operated for 5 minutes, to expose 0.5 g substitutive fine dusts (brand name LM-YG0510, comprising strontium carbonate, alumina, europium oxide, and dysprosium oxide).
iv) Using a magnifying glass (Aphrodite-3, 50×), UV images were photographed (measuring 4 points per plate).
v) Using ImagePro Plus, the area of dust attachment was measured.
vi) The fine dust attachment rate was calculated by comparing the sample with the result of 3 times of experiments (Setting the fine dust attachment rate of the control group to 100).

Molecule	effect of preventing fine dust attachment (in words)
CCCCC(CC)COC(=O)c1ccc(Nc2nc(Nc3ccc(C(=O)NC(C)(C)C)cc3)nc(Nc3ccc(C(=O)OCC(CC)CCCC)cc3)n2)cc1 (stereo not drawn) [Diethylhexyl butamido triazone]	excellent effect of preventing fine dust attachment; also recorded: excellent effect of reducing fine dust attachment
CC(C)(C)CC(C)(C)c1cc(Cc2cc(C(C)(C)CC(C)(C)C)cc(-n3nc4ccccc4n3)c2O)c(O)c(-n2nc3ccccc3n2)c1 [Methylene Bis-Benzotriazolyl tetramethyl butylphenol]	excellent effect of preventing fine dust attachment; also recorded: excellent effect of reducing fine dust attachment
O=S(=O)([O-])c1cc(S(=O)(=O)O)cc2[nH]c(-c3ccc(-c4nc5c(S(=O)(=O)[O-])cc(S(=O)(=O)O)cc5[nH]4)cc3)nc12.[Na+].[Na+] [disodium phenyl dibenzimidazole tetrasulfonate]	excellent effect of preventing fine dust attachment; also recorded: excellent effect of reducing fine dust attachment
CCCCC(CC)COC(=O)c1ccc(Nc2nc(Nc3ccc(C(=O)OCC(CC)CCCC)cc3)nc(Nc3ccc(C(=O)OCC(CC)CCCC)cc3)n2)cc1 (stereo not drawn) [ethylhexyl triazone]	excellent effect of preventing fine dust attachment; also recorded: excellent effect of reducing fine dust attachment
Nc1nc(N)nc(N)n1 [melamine, 1,3,5-triazine-2,4,6-triamine]	excellent effect of preventing fine dust attachment
trisbiphenyl triazine	excellent effect of preventing fine dust attachment; also recorded: excellent effect of reducing fine dust attachment
